Measured values from patent US9783532B2, “Molecules having certain pesticidal utilities, and intermediates, compositions, and processes related thereto” (Dow AgroSciences LLC, priority 2013, dated 2017).

Tests used:
Assay type in all cases: in vivo
[1] = tested on: Green Peach Aphid ("GPA") (Myzus persicae); assay: Bioassay on green peach aphid (GPA), foliar spray on cabbage seedlings; conditions: Myzus persicae, foliar, 72 h; 200 ppm spray on infested cabbage seedlings, three days, Abbott corrected % control; read-out: GPA % Control (or Mortality) rating
Experimental: Certain molecules disclosed in this document were tested against GPA using procedures described in the following example. In the reporting of the results, the “GPA Rating Table” was used (See Table Section).
Cabbage seedlings grown in 3-inch pots, with 2-3 small (3-5 cm) true leaves, were used as test substrate. The seedlings were infested with 20-50 GPA (wingless adult and nymph stages) one day prior to chemical application. Four pots with individual seedlings were used for each treatment. Test compounds (2 mg) were dissolved in 2 mL of acetone/methanol (1:1) solvent, forming stock solutions of 1000 ppm test compound. The stock solutions were diluted 5× with 0.025% Tween 20 in water to obtain the solution at 200 ppm test compound. A hand-held aspirator-type sprayer was used for spraying a solution to both sides of […] leaves until runoff. Reference plants (solvent check) were sprayed with the diluent only containing 20% by volume of acetone/methanol (1:1) solvent. Treated plants were held in a holding room for three days at approximately 25° C. and ambient relative humidity (RH) prior to grading. Evaluation was conducted by counting the number of live aphids per plant under a microscope. Percent Control was measured by using Abbott's correction formula (W. S. Abbott, “A Method of Computing the Effectiveness of an Insecticide” J. Econ. Entomol. 18 (1925), pp. 265-267) as follows. Corrected % Control=100*(X−Y)/X • where • X=No. of live aphids on solvent check plants and • Y=No. of live aphids on treated plants

[2] = tested on: Cabbage Looper (Trichoplusia ni) ("CL"); assay: Bioassay on cabbage looper (CL), 128-well diet tray assay; conditions: for mortality at 50 µg/cm2: 168 h, 50 μg/cm^2 on artificial diet, second instar CL larvae, 25° C., five to seven days, average of eight wells, read-out: CL % Control (or Mortality) rating; for pest or weed control at 50 µg/cm2: Table ABC (FB), activity rating class, read-out: CL (Biological Results, Insect species)
Procedure, shortened: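 Percent mortality, averaged across eight replicate wells, was read after five to seven days at 25 °C under a 14:10 photoperiod. Each well held one to five second-instar T. ni on diet carrying a dried 50 μg/cm^2 dose applied in acetone-water 90:10.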

[3] = tested on: Beet Armyworm (Spodoptera exigua) ("BAW"); assay: Bioassay on beet armyworm (BAW), 128-well diet tray assay; conditions: for mortality at 50 µg/cm2: 168 h, 50 μg/cm^2 on artificial diet, second instar BAW larvae, 25° C., five to seven days, average of eight wells, read-out: BAW % Control (or Mortality) rating; for pest or weed control at 50 µg/cm2: Table ABC (FB), activity rating class, read-out: BAW (Biological Results, Insect species)
Procedure, shortened: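 Percent mortality, averaged across eight wells, was read after five to seven days at 25° C. under 14:10 light-dark. Each well held one to five second-instar larvae on artificial diet that had been treated with 50 μg/cm^2 compound in 90:10 acetone-water and dried.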

[4] = tested on: Yellow Fever Mosquito "YFM" (Aedes aegypti); conditions: for YFM (Biological Results, Insect species): Table ABC (FB), activity rating class; for YFM % Control (or Mortality) rating: about 1 day-old larvae, 96-well plate, room temperature, 3 days
Experimental: Certain molecules disclosed in this document were tested against YFM using procedures described in the following paragraph. In the reporting of the results, the “YFM Rating Table” was used (See Table Section).
Master plates containing 400 μg of a molecule dissolved in 100 μL of dimethyl sulfoxide (DMSO) (equivalent to a 4000 ppm solution) are used. A master plate of assembled molecules contains 15 μL per well. To this plate, 135 μL of a 90:10 wateracetone mixture is added to each well. A robot (Biomek® NXP Laboratory Automation Workstation) is programmed to dispense 15 μL aspirations from the master plate into an empty 96-well shallow plate (“daughter” plate). There are 6 reps (“daughter” plates) created per master. The created daughter plates are then immediately infested with YFM larvae.
The day before plates are to be treated, mosquito eggs are placed in Millipore water containing liver powder to begin hatching (4 g. into 400 mL). After the daughter plates are created using the robot, they are infested with 220 μL of the liver powder/larval mosquito mixture (about 1 day-old larvae). After plates are infested with mosquito larvae, a non-evaporative lid is used to cover the plate to reduce drying. Plates are held at room temperature for 3 days prior to grading. After 3 days, each well is observed and scored based on mortality.

| SMILES | mortality at 200 ppm [1] | mortality at 50 µg/cm2 [2] | mortality at 50 µg/cm2 [3] | YFM (Biological Results, Insect species) [4] | pest or weed control at 50 µg/cm2 [2] | pest or weed control at 50 µg/cm2 [3] | YFM % Control (or Mortality) rating [4] |
| --- | --- | --- | --- | --- | --- | --- | --- |
| CCc1cccc(C)c1N1C(=O)CS/C1=N\C(=O)NC1CC1c1ccc(-c2ncn(-c3ccc(OC(F)(F)F)cc3)n2)cc1 (stereo not drawn) [F31, (Z)-1-(3-(2-ethyl-6-methylphenyl)-4-oxothiazolidin-2-ylidene)-3-(2-(4-(1-(4-(trifluoromethoxy)phenyl)-1H-1,2,4-triazol-3-yl)phenyl)cyclopropyl)urea] | 0% | 50 to 100% | 50 to 100% |  |  |  |  |
| Cc1ccc(C(C)C)c(N2C(=O)CCS/C2=N\C(=O)NCCc2ccc(-c3ncn(-c4ccc(OC(F)(F)F)cc4)n3)cc2)c1 [FB41] |  |  |  | A (80-100) | 50 to 100% | 50 to 100% |  |
| Cc1ccc(C(C)C)c(N2C(=O)CS/C2=N\C(=O)N(C)CCc2ccc(-c3ncn(-c4ccc(OC(F)(F)F)cc4)n3)cc2)c1 [FB51] |  |  |  | A (80-100) | 50 to 100% | 50 to 100% |  |
| Cc1ccc(C(C)C)c(N2C(=O)CS/C2=N\C(=O)NCC(Br)c2ccc(-c3ncn(-c4ccc(OC(F)(F)F)cc4)n3)cc2)c1 (stereo not drawn) [FB71, (Z)-1-(2-bromo-2-(4-(1-(4-(trifluoromethoxy)phenyl)-1H-1,2,4-triazol-3-yl)phenyl)ethyl)-3-(3-(2-isopropyl-5-methylphenyl)-4-oxothiazolidin-2-ylidene)urea] |  |  |  | A (80-100) | 50 to 100% | 50 to 100% |  |
| COc1cc(C)c(N2C(=O)CS/C2=N\C(=O)NCCc2ccc(-c3ncn(-c4ccc(OC(F)(F)F)cc4)n3)cc2)c(C)c1 [P47, (Z)-1-(3-(4-methoxy-2,6-dimethylphenyl)-4-oxothiazolidin-2-ylidene)-3-(4-(1-(4-(trifluoromethoxy)phenyl)-1H-1,2,4-triazol-3-yl)phenethyl)urea] |  | 50 to 100% | 50 to 100% |  |  |  | A (80-100) |
| Cc1ccc(C(C)C)c(N2C(=O)CS/C2=N\C(=O)NCC(C)(C)c2ccc(-c3ncn(-c4ccc(OC(F)(F)F)cc4)n3)cc2)c1 [FB53, (Z)-1-(3-(2-isopropyl-5-methylphenyl)-4-oxothiazolidin-2-ylidene)-3-(2-methyl-2-(4-(1-(4-(trifluoromethoxy)phenyl)-1H-1,2,4-triazol-3-yl)phenyl)propyl)urea] |  |  |  | B (More than 0-Less than 80) | 50 to 100% | 50 to 100% |  |
| CC(C)c1ccccc1N1C(=O)CS/C1=N\C(=O)NCC(C)c1ccc(-c2ncn(-c3ccc(OC(F)(F)F)cc3)n2)cc1 (stereo not drawn) [P205, (Z)-1-(3-(2-isopropylphenyl)-4-oxothiazolidin-2-ylidene)-3-(2-(4-(1-(4-(trifluoromethoxy)phenyl)-1H-1,2,4-triazol-3-yl)phenyl)propyl)urea] |  | 50 to 100% | 50 to 100% |  |  |  | A (80-100) |
| Cc1ccc(C(C)C)c(N2C(=O)CS/C2=N\C(=O)N(CCc2ccc(-c3ncn(-c4ccc(OC(F)(F)F)cc4)n3)cc2)CC2CC2)c1 [FB62, (Z)-1-(cyclopropylmethyl)-3-(3-(2-isopropyl-5-methylphenyl)-4-oxothiazolidin-2-ylidene)-1-(4-(1-(4-(trifluoromethoxy)phenyl)-1H-1,2,4-triazol-3-yl)phenethyl)urea] |  |  |  | A (80-100) | 50 to 100% | 50 to 100% |  |
| COc1ccc(C(C)C)c(N2C(=O)CS/C2=N\C(=O)NCC(C)c2ccc(-c3ncn(-c4ccc(OC(F)(F)F)cc4)n3)cc2)c1 (stereo not drawn) [P679, (Z)-1-(3-(2-isopropyl-5-methoxyphenyl)-4-oxothiazolidin-2-ylidene)-3-(2-(4-(1-(4-(trifluoromethoxy)phenyl)-1H-1,2,4-triazol-3-yl)phenyl)propyl)urea] |  | 50 to 100% | 50 to 100% |  |  |  | A (80-100) |
| Cc1ccc(C(C)C)c(N2C(=O)CS/C2=N\C(=O)NC(C)C(C)c2ccc(-c3ncn(-c4ccc(OC(F)(F)F)cc4)n3)cc2)c1 (stereo not drawn) [P66, P353, (Z)-1-(3-(2-isopropyl-5-methylphenyl)-4-oxothiazolidin-2-ylidene)-3-(3-(4-(1-(4-(trifluoromethoxy)phenyl)-1H-1,2,4-triazol-3-yl)phenyl)butan-2-yl)urea] |  | 50 to 100% | 50 to 100% |  |  |  | A (80-100) |
| CC(C)c1cc(F)ccc1N1/C(=N/C(=O)NCCc2ccc(-c3ncn(-c4ccc(OC(F)(F)F)cc4)n3)cc2)SCC1C (stereo not drawn) [FB57] |  |  |  | A (80-100) | 50 to 100% | 50 to 100% |  |
| Cc1ccccc1N1C(=O)CS/C1=N\C(=O)NCCCCc1ccc(-c2ncn(-c3ccc(OC(F)(F)F)cc3)n2)cc1 [P144, (Z)-1-(4-oxo-3-(o-tolyl)thiazolidin-2-ylidene)-3-(4-(4-(1-(4-(trifluoromethoxy)phenyl)-1H-1,2,4-triazol-3-yl)phenyl)butyl)urea] |  | 50 to 100% | 50 to 100% |  |  |  | A (80-100) |
| Cc1ccc(C(C)C)c(N2C(=O)C(C)S/C2=N\C(=O)NCCc2ccc(-c3ncn(-c4ccc(OC(F)(F)F)cc4)n3)cc2)c1 (stereo not drawn) [P57, (Z)-1-(3-(2-isopropyl-5-methylphenyl)-5-methyl-4-oxothiazolidin-2-ylidene)-3-(4-(1-(4-(trifluoromethoxy)phenyl)-1H-1,2,4-triazol-3-yl)phenethyl)urea] |  | 50 to 100% | 50 to 100% |  |  |  | A (80-100) |
| C=CCN(CCc1ccc(-c2ncn(-c3ccc(OC(F)(F)F)cc3)n2)cc1)C(=O)/N=C1\SCC(=O)N1c1cc(C)ccc1C(C)C [FB61] |  |  |  | A (80-100) | 50 to 100% | 50 to 100% |  |
| Cc1ccc(N2C(=O)CS/C2=N\C(=O)NCCCCc2ccc(-c3ncn(-c4ccc(OC(F)(F)F)cc4)n3)cc2)c(C(C)C)c1 [P154, (Z)-1-(3-(2-isopropyl-4-methylphenyl)-4-oxothiazolidin-2-ylidene)-3-(4-(4-(1-(4-(trifluoromethoxy)phenyl)-1H-1,2,4-triazol-3-yl)phenyl)butyl)urea] |  | 50 to 100% | 50 to 100% |  |  |  | B (More than 0-Less than 80) |
| Cc1ccc(N2C(=O)CS/C2=N\C(=O)NCCCCc2ccc(-c3ncn(-c4ccc(OC(F)(F)F)cc4)n3)cc2)c(C)c1 [FB17, (Z)-1-(3-(2,4-dimethylphenyl)-4-oxothiazolidin-2-ylidene)-3-(4-(4-(1-(4-(trifluoromethoxy)phenyl)-1H-1,2,4-triazol-3-yl)phenyl)butyl)urea] |  |  |  | A (80-100) | 50 to 100% | 50 to 100% |  |
| Cc1ccc(N2C(=O)CS/C2=N\C(=O)NC(C)Cc2ccc(-c3ncn(-c4ccc(OC(F)(F)F)cc4)n3)cc2)c(C(C)C)c1 (stereo not drawn) [FB48, (Z)-1-(3-(2-isopropyl-4-methylphenyl)-4-oxothiazolidin-2-ylidene)-3-(1-(4-(1-(4-(trifluoromethoxy)phenyl)-1H-1,2,4-triazol-3-yl)phenyl)propan-2-yl)urea] |  |  |  | A (80-100) | 50 to 100% | 50 to 100% |  |
